Reference: patent US20230144824A1, “1H-PYRAZOLO[4,3-d]PYRIMIDINE COMPOUNDS AS TOLL-LIKE RECEPTOR 7 (TLR7) AGONISTS” (BRISTOL-MYERS SQUIBB COMPANY, priority 2020, published 2023)

Legend:
CD69 = assay: Induction of CD69 in human whole blood; type: cell-based; conditions: Homo sapiens, 17 h, 100% set to 1 uM of resiquimod, average where assay performed multiple times, read-out: hWB CD69 EC50
Description: The induction of Type I interferon (IFN) MX-1 genes and the B-cell activation marker CD69 are downstream events that occur upon activation of the TLR7 pathway. The following is a human whole blood assay that measures their induction in response to a TLR7 agonist.
Heparinized human whole blood was harvested from human subjects and treated with test TLR7 agonist compounds at 1 mM. The blood was diluted with RPMI 1640 media and Echo was used to predot 10 nL per well giving a final concentration of 1 uM (10 nL in 10 uL of blood). After mixing on a shaker for 30 sec, the plates were covered and placed in a 37° C. chamber for o/n=17 hrs. Fixing/lysis buffer was prepared (5×->1× in H2O, warm at 37° C.; Cat #BD 558049) and kept the perm buffer (on ice) for later use.
For surface markers staining (CD69): prepared surface Abs: 0.045 ul hCD14-FITC (ThermoFisher Cat #MHCD1401)+0.6 ul hCD19-ef450 (ThermoFisher Cat #48-0198-42)+1.5 ul hCD69-PE (cat #BD555531)+0.855 ul FACS buffer. Added 3 ul/well, spin1000 rpm for 1 min and mixed on shaker for 30 sec, put on ice for 30 mins. Stop stimulation after 30 minutes with 70 uL of prewarmed 1× fix/lysis buffer and use Feliex mate to resuspend (15 times, change tips for each plate) and incubate at 37 C for 10 minutes.
Centrifuge at 2000 rpm for 5 minutes aspirate with HCS plate washer, mix on shaker for 30 sec and then wash with 70 uL in dPBS and pelleted 2×s (2000 rpm for 5 min) and 50 ul wash in FACS buffer pelleted 1×s (2000 rpm for 5 min). Mix on shaker for 30 sec. For Intracellular markers staining (MX-1): Add 50 ul of BD Perm buffer III and mix on shaker for 30 sec. Incubate on ice for 30 minutes (in the dark). Wash with 50 uL of FACS buffer 2×(spin @2300 rpm×5 min after perm) followed by mixing on shaker for 30 sec. Resuspended in 20 ul of FACS buffer containing MX1 antibody ( )(4812)-Alexa 647: Novus Biologicals #NBP2-43704AF647) 20 ul FACS bf+0.8 ul hIgG+0.04 ul MX-1. Spin 1000 rpm for 1 min, mix on shaker for 30 se and the samples were incubated at RT in the dark for 45 minutes followed by washing 2×FACS buffer (spin @2300 rpm×5 min after perm). Resuspend 20 ul (35 uL total per well) of FACS buffer and cover with foil and place in 4° C. to read the following day. Plates were read on iQuePlus. The results were loaded into toolset and IC50 curves are generated in curve master. The y-axis 100% is set to 1 uM of resiquimod.

human TLR7 = target: T1, human TLR7 (Homo sapiens, UniProt Q9NYK1); assay: Human TLR7 agonist activity assay (HEK-Blue TLR7 SEAP reporter); type: cell-based; conditions: HEK-Blue TLR7 cells, 18 h treatment, average where assay performed multiple times, read-out: hTLR7 Agonism EC50
T1 construct: host or cells: HEK-Blue TLR7 cells (engineered human embryonic kidney cells)
T1 sequence (Q9NYK1 27-1049): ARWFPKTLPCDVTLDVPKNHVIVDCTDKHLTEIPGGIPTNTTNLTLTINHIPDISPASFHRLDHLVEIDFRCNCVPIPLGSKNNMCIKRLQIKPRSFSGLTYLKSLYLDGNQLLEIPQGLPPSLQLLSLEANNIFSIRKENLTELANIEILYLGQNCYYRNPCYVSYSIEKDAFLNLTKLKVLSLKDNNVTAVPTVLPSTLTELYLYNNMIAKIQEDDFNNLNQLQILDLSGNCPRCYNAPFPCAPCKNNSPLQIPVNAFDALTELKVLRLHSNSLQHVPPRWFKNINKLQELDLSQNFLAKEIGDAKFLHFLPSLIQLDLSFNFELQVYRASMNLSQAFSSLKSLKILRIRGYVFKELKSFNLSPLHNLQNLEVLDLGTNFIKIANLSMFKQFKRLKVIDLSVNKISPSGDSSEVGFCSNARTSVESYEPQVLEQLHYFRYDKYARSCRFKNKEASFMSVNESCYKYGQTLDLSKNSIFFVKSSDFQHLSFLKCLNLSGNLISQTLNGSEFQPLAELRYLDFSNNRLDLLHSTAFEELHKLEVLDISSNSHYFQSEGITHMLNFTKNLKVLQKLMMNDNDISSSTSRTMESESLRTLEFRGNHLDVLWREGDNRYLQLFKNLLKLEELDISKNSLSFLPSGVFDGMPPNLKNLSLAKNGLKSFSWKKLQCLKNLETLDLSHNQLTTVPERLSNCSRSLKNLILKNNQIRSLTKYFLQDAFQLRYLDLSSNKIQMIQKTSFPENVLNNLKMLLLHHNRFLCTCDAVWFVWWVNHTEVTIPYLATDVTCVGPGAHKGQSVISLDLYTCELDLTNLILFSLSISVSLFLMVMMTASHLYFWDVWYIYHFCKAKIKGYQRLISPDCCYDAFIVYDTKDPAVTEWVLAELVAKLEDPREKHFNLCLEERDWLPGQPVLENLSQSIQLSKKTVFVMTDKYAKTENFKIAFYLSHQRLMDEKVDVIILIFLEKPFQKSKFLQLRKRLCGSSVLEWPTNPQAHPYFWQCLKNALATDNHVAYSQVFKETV
Description: This procedure describes a method for assaying human TLR7 (hTLR7) agonist activity of the compounds disclosed in this specification.
HEK-Blue™ TLR7 cells were added to each well of a 384-well tissue-culture plate (15,000 cells per well) and incubated 16-18 h at 37° C., 5% CO2. Compounds (100 nl) were dispensed into wells containing the HEK-Blue™ TLR cells and the treated cells were incubated at 37° C., 5% CO2. After 18 h treatment ten microliters of freshly-prepared Quanti-Blue™ reagent (Invivogen) was added to each well, incubated for 30 min (37° C., 5% CO2) and SEAP levels measured using an Envision plate reader (OD=620 nm). The half maximal effective concentration values (EC50; compound concentration which induced a response halfway between the assay baseline and maximum) were calculated.

SMILES | EC50 (CD69) | EC50 (human TLR7)
CCC[C@@H](CCO)Nc1nc(N)nc2cnn(Cc3ncc(C4CCCCCN4)cc3OC)c12 (mixture of isomers) [Compound 183, (3S)-3-[(5-amino-1-{[5-(azepan-2-yl)-3-methoxypyridin-2-yl]methyl}-1H-pyrazolo[4,3-d]pyrimidin-7-yl)amino]hexan-1-ol] | 2.8 nM | 89.9 nM
CCC[C@@H](CCO)Nc1nc(N)nc2cnn(Cc3ncc(C4C[C@@H](C#N)CN4)cc3OC)c12 (mixture of isomers) [Compound 185, (3R)-5-{6-[(5-amino-7-{[(3S)-1-hydroxyhexan-3-yl]amino}-1H-pyrazolo[4,3-d]pyrimidin-1-yl)methyl]-5-methoxypyridin-3-yl}pyrrolidine-3-carbonitrile] | 27.8 nM | 399 nM
CCCCNc1nc(N)nc2cnn(Cc3ncc(C4CCNCC4)cc3OC)c12 [Compound 101, N7-butyl-1-{[3-methoxy-5-(piperidin-4-yl)pyridin-2-yl]methyl}-1H-pyrazolo[4,3-d]pyrimidine-5,7-diamine] | 9.3 nM | 56.6 nM
CCCCNc1nc(N)nc2cnn(Cc3ncc(C4CCN(C5COC5)CC4)cc3OC)c12 [Compound 102, N7-butyl-1-({3-methoxy-5-[1-(oxetan-3-yl)piperidin-4-yl]pyridin-2-yl}methyl)-1H-pyrazolo[4,3-d]pyrimidine-5,7-diamine] | 87.8 nM | 120 nM
CCCCNc1nc(N)nc2cnn(Cc3ncc(C4CCN(S(C)(=O)=O)CC4)cc3OC)c12 [Compound 103, N7-butyl-1-{[5-(1-methanesulfonylpiperidin-4-yl)-3-methoxypyridin-2-yl]methyl}-1H-pyrazolo[4,3-d]pyrimidine-5,7-diamine] | 562 nM | 204 nM
CCCCNc1nc(N)nc2cnn(Cc3ncc(C4CCN(C(=O)CCOC)CC4)cc3OC)c12 [Compound 104, 1-[4-(6-{[5-amino-7-(butylamino)-1H-pyrazolo[4,3-d]pyrimidin-1-yl]methyl}-5-methoxypyridin-3-yl)piperidin-1-yl]-3-methoxypropan-1-one] | 213 nM | 445 nM
CCCCNc1nc(N)nc2cnn(Cc3ncc(C4CCN(C(=O)CCO)CC4)cc3OC)c12 [Compound 105, 1-[4-(6-{[5-amino-7-(butylamino)-1H-pyrazolo[4,3-d]pyrimidin-1-yl]methyl}-5-methoxypyridin-3-yl)piperidin-1-yl]-3-hydroxypropan-1-one] | 159 nM | 817 nM
CCCCNc1nc(N)nc2c(C)nn(Cc3ncc(C4CCNCC4)cc3OC)c12 [Compound 106, N7-butyl-1-{[3-methoxy-5-(piperidin-4-yl)pyridin-2-yl]methyl}-3-methyl-1H-pyrazolo[4,3-d]pyrimidine-5,7-diamine] | 150 nM | 549 nM
CCCCNc1nc(N)nc2c(C3CC3)nn(Cc3ncc(C4CCN(C)CC4)cc3OC)c12 [Compound 107, N7-butyl-3-cyclopropyl-1-{[3-methoxy-5-(1-methylpiperidin-4-yl)pyridin-2-yl]methyl}-1H-pyrazolo[4,3-d]pyrimidine-5,7-diamine] | 444 nM | 383 nM
CCCCNc1nc(N)nc2cnn(Cc3ncc(C4CCN(C5CCC5)CC4)cc3OC)c12 [Compound 108, N7-butyl-1-{[5-(1-cyclobutylpiperidin-4-yl)-3-methoxypyridin-2-yl]methyl}-1H-pyrazolo[4,3-d]pyrimidine-5,7-diamine] | 4.8 nM | 51.9 nM
CCC[C@@H](CCO)Nc1nc(N)nc2c(C)nn(Cc3ncc(C4CCN(C5CCOCC5)CC4)cc3OC)c12 [Compound 215, (3S)-3-{[5-amino-1-({3-methoxy-5-[1-(oxan-4-yl)piperidin-4-yl]pyridin-2-yl}methyl)-3-methyl-1H-pyrazolo[4,3-d]pyrimidin-7-yl]amino}hexan-1-ol] |  | 29.8 nM
CCC[C@@H](CCO)Nc1nc(N)nc2cnn(Cc3ccc(C4CCN(C5CCOCC5)CC4)nc3)c12 [Compound 216, (3S)-3-{[5-amino-1-({6-[1-(oxan-4-yl)piperidin-4-yl]pyridin-3-yl}methyl)-1H-pyrazolo[4,3-d]pyrimidin-7-yl]amino}hexan-1-ol] |  | 1540 nM
CCCCNc1nc(N)nc2cnn(Cc3ncc(C4CCN(Cc5ncn(C)n5)CC4)cc3OC)c12 [Compound 217, N7-butyl-1-[(3-methoxy-5-{1-[(1-methyl-1H-1,2,4-triazol-3-yl)methyl]piperidin-4-yl}pyridin-2-yl)methyl]-1H-pyrazolo[4,3-d]pyrimidine-5,7-diamine] |  | 80.1 nM
CCCCNc1nc(N)nc2cnn(Cc3ncc(C4CCN(CC5CCOCC5)CC4)cc3OC)c12 [Compound 218, N7-butyl-1-[(3-methoxy-5-{1-[(oxan-4-yl)methyl]piperidin-4-yl}pyridin-2-yl)methyl]-1H-pyrazolo[4,3-d]pyrimidine-5,7-diamine] |  | 25.9 nM
CCCCNc1nc(N)nc2cnn(Cc3cnc(C4CCN(C5CCOCC5)CC4)cc3OC)c12 [Compound 219, N7-butyl-1-({4-methoxy-6-[1-(oxan-4-yl)piperidin-4-yl]pyridin-3-yl}methyl)-1H-pyrazolo[4,3-d]pyrimidine-5,7-diamine] |  | 21.9 nM
CCC[C@@H](CCO)Nc1nc(N)nc2c(C)nn(Cc3cnc(C4CCN(CC#N)CC4)cc3OC)c12 [Compound 220, 2-(4-{5-[(5-amino-7-{[(3S)-1-hydroxyhexan-3-yl]amino}-3-methyl-1H-pyrazolo[4,3-d]pyrimidin-1-yl)methyl]-4-methoxypyridin-2-yl}piperidin-1-yl)acetonitrile] |  | 436 nM
CCC[C@@H](CCO)Nc1nc(N)nc2c(C)nn(Cc3cnc(C4CCNCC4)cc3OC)c12 [Compound 221, (3S)-3-[(5-amino-1-{[4-methoxy-6-(piperidin-4-yl)pyridin-3-yl]methyl}-3-methyl-1H-pyrazolo[4,3-d]pyrimidin-7-yl)amino]hexan-1-ol] |  | 57.1 nM
CCC[C@@H](CCO)Nc1nc(N)nc2c(C)nn(Cc3cnc(C4CCN(C5CCOCC5)CC4)cc3OC)c12 [Compound 222, (3S)-3-{[5-amino-1-({4-methoxy-6-[1-(oxan-4-yl)piperidin-4-yl]pyridin-3-yl}methyl)-3-methyl-1H-pyrazolo[4,3-d]pyrimidin-7-yl]amino}hexan-1-ol] |  | 170 nM
